Source: patent US20110105550A1 (SALIX PHARMACEUTICALS, LTD., priority 2008, published 2011)
Entries after “also recorded” stand apart in the source; their conditions may differ.

What was measured:
Format in all cases: physicochemical
[1] = Rifaximin drying experiments, solid form by XRPD
[2] = Stressing under various relative humidities (RH), solid form by XRPD; settings: for RH stability: solid form after exposure, 58% RH / RH stability: solid form after exposure, 75% RH: duration not printed in Table 1, am = amorphous
From the text: The jar was sealed and stored at either ambient temperature or in an oven at elevated temperature.

[3] = Automated moisture sorption/desorption (moisture balance); settings: for wt loss from 95 to 5% RH: desorption 95 to 5% RH; for Hygroscopicity: moisture balance; for wt gain from 5 to 95% RH: sorption 5 to 95% RH; for Post-moisture sorption/desorption XRPD form: sorption from 5% RH to 95% RH, desorption from 95% RH to 5% RH
Method: Moisture sorption/desorption data were collected on a VTI SGA-100 Vapor Sorption Analyzer. Sorption and desorption data were collected over a range of 5% to 95% relative humidity (RH) at 10% RH intervals under a nitrogen purge. Samples were not dried prior to analysis. Equilibrium criteria used for analysis were less than 0.0100% weight change in 5 minutes, with a maximum equilibration time of 3 hours if the weight criterion was not met. Data were not corrected for the initial moisture content of the samples. NaCl and PVP were used as calibration standards.

[4] = Vapor stressing / vapor diffusion of amorphous rifaximin; settings: for Form obtained in vapor diffusion experiment: water as antisolvent
Method: (§1) Vapor stressing experiments were done on amorphous material from two preparations: lyophilization from p-dioxane:water 1:1 and crash precipitation from ethyl acetate with heptane. […] The majority of the stressed samples appeared as clear red solutions after 6 days. Those solutions were placed in vials of antisolvent for vapor diffusion. Dry and wet milling experiments were conducted on amorphous materials from the two preparations mentioned above. Amorphous materials were recovered from the dry milling experiments.

[5] = Dynamic vapor sorption/desorption (DVS) of amorphous preparations
Method: Based on the data, relative humidity stressing studies of the two amorphous materials at 40° C./75% RH are recommended.

[6] = Milling experiments for amorphous materials; settings: 10 min. at 30 Hz, scraped sides, 10 min. at 30 Hz (dry milling)
Method: as §1
A solid sample of rifaximin was charged to a milling container with a milling ball. Samples were milled for 5 or 15 minute intervals (2×5 minutes, 2×15 minutes, and 3×15 minutes) at 30 Hz using a Retsch MM200 mixer mill. Solids were scraped from the sides of the vial after each interval.

[7] = first sample of Table 3 (by elimination: lyophilization in p-dioxane:water 1:1)
[8] = second sample of Table 3 (crash precipitation from ethyl acetate with heptane)

SMILES: CO[C@H]1/C=C/O[C@@]2(C)Oc3c(C)c(O)c4c(O)c(c5c(nc6cc(C)ccn65)c4c3C2=O)NC(=O)/C(C)=C\C=C\[C@H](C)[C@H](O)[C@@H](C)[C@@H](O)[C@@H](C)[C@H](OC(C)=O)[C@@H]1C [Form η]
- XRPD Form after drying ([1]; vac oven, 40° C., 1 day): remained unchanged
- XRPD Form after drying ([1]; vac oven, 40° C., 1 day, listed as η): η
- Solid form after vacuum drying ([1]; vacuum dried (Table 1 column), listed as η): η

SMILES: CO[C@H]1/C=C/O[C@@]2(C)Oc3c(C)c(O)c4c(O)c(c5c(nc6cc(C)ccn65)c4c3C2=O)NC(=O)/C(C)=C\C=C\[C@H](C)[C@H](O)[C@@H](C)[C@@H](O)[C@@H](C)[C@H](OC(C)=O)[C@@H]1C [Form β-1]
- Final Form (XRPD) ([2]; 33% RH, 4 days): β
- Final Form (XRPD) ([2]; 58% RH, 3 days): β + peak @4.87 °2θ
- RH stability: solid form after exposure, 58% RH ([2]; 58% RH, listed as β-1): β + pk
- Final Form (XRPD) ([2]; 75% RH, 3 days): β
- RH stability: solid form after exposure, 75% RH ([2]; 75% RH, listed as β-1): β
- Final Form (XRPD) ([2]; 94% RH, 3 days): β
- RH stability: solid form after exposure, 94% RH ([2]; 94% RH, duration not given): β

SMILES: CO[C@H]1/C=C/O[C@@]2(C)Oc3c(C)c(O)c4c(O)c(c5c(nc6cc(C)ccn65)c4c3C2=O)NC(=O)/C(C)=C\C=C\[C@H](C)[C@H](O)[C@@H](C)[C@@H](O)[C@@H](C)[C@H](OC(C)=O)[C@@H]1C [Form ε, reference compound]
- XRPD Form after drying ([1]; vac oven 60-65° C., 3 days, listed as ε): ε dry

SMILES: CO[C@H]1/C=C/O[C@@]2(C)Oc3c(C)c(O)c4c(O)c(c5c(nc6cc(C)ccn65)c4c3C2=O)NC(=O)/C(C)=C\C=C\[C@H](C)[C@H](O)[C@@H](C)[C@@H](O)[C@@H](C)[C@H](OC(C)=O)[C@@H]1C [Form α, reference compound]
- Final Form (XRPD) ([2]; P2O5, 4 days): α dry

SMILES: CO[C@H]1/C=C/O[C@@]2(C)Oc3c(C)c(O)c4c(O)c(c5c(nc6cc(C)ccn65)c4c3C2=O)NC(=O)/C(C)=C\C=C\[C@H](C)[C@H](O)[C@@H](C)[C@@H](O)[C@@H](C)[C@H](OC(C)=O)[C@@H]1C [amorphous]
- wt loss from 95 to 5% RH ([3]; listed as Rifaximin Amorphous): 11.3% wt loss from 95 to 5% RH
- wt loss upon equilibration at 5% RH ([3]; listed as Rifaximin Amorphous): 0.7% wt loss upon equilibration at 5% RH
- Hygroscopicity [3]: hygroscopic
- wt gain from 5 to 95% RH ([3]; listed as Amorphous rifaximin): 11.6%
- wt gain from 5 to 95% RH ([3]; listed as Rifaximin Amorphous): 11.6% wt gain from 5 to 95% RH
- Post-moisture sorption/desorption XRPD form ([3]; listed as Amorphous): amorphous
- Post-moisture sorption/desorption XRPD form ([3]; listed as Amorphous rifaximin): amorphous
- Post-moisture sorption/desorption XRPD form ([3]; listed as Rifaximin Amorphous): amorphous
- XRPD Result after stressing ([4]; DCM, VD w/ IPE, 11 days): amorphous
- XRPD Result after stressing ([4]; MEK, VD w/ IPE, 11 days): amorphous
- Form obtained in vapor diffusion experiment ([4]; methanol): Form β
- Form obtained in vapor diffusion experiment ([4]; tetrahydrofuran): Form β
- XRPD Result after stressing ([4]; toluene, VS, RT, 6 days, listed as Rifaximin, Amorphous): amorphous
- XRPD Result after stressing ([4]; toluene, VS, RT, 6 days, listed as amorphous material): no peaks by XRPD
- XRPD Result after stressing ([4]; water, VS, RT, 15 days): amorphous
- DVS weight gain from 5-95% RH [5, 7]: 8.364% eight gain from 5-95% RH
- DVS weight loss at 5% RH [5, 7]: 0.100% weight loss at 5% RH
- DVS weight loss from 95-5% RH [5, 7]: 10.989% weight loss from 95-5% RH
- DVS weight loss at 5% RH ([5]; second sample of Table 3 (DSC endo 79/204: crash precipitation from ethyl acetate with heptane)): 1.606% weight loss at 5% RH
- DVS weight gain from 5-95% RH [5, 8]: 7.843% weight gain from 5-95% RH
- DVS weight loss from 95-5% RH [5, 8]: 9.172% weight loss from 95-5% RH
- Final Form (XRPD) ([2]; 43% RH, 5 days): amorphous
- Final Form (XRPD) ([2]; 43% RH, 5 days, listed as Amorphous): amorphous
- Final Form (XRPD) ([2]; 43% RH, 5 days, listed as amorphous rifaximin): remained amorphous
- Final Form (XRPD) ([2]; 58% RH, 5 days): amorphous
- Final Form (XRPD) ([2]; 58% RH, 8 days): remained amorphous
- RH stability: solid form after exposure, 58% RH ([2]; 58% RH): am
- Final Form (XRPD) ([2]; 75% RH, 2 days, listed as amorphous rifaximin): remained amorphous
- Final Form (XRPD) ([2]; 75% RH, 5 days): amorphous
- RH stability: solid form after exposure, 75% RH ([2]; 75% RH): am

SMILES: CO[C@H]1/C=C/O[C@@]2(C)Oc3c(C)c(O)c4c(O)c(c5c(nc6cc(C)ccn65)c4c3C2=O)NC(=O)/C(C)=C\C=C\[C@H](C)[C@H](O)[C@@H](C)[C@@H](O)[C@@H](C)[C@H](OC(C)=O)[C@@H]1C [Form β-2]
- XRPD Form after drying ([1]; vac oven, 40° C., 1 day, listed as β-2): α dry
- Solid form after vacuum drying ([1]; vacuum dried (Table 1 column), listed as β-2): α dry
- Final Form (XRPD) ([2]; under N2 atmosphere, 20% RH, 3 days): α^d and α

SMILES: CO[C@H]1/C=C/O[C@@]2(C)Oc3c(C)c(O)c4c(O)c(c5c(nc6cc(C)ccn65)c4c3C2=O)NC(=O)/C(C)=C\C=C\[C@H](C)[C@H](O)[C@@H](C)[C@@H](O)[C@@H](C)[C@H](OC(C)=O)[C@@H]1C [lyophilized amorphous rifaximin]
- Hygroscopicity (DVS) ([5]; 5 to 95% relative humidity): moderately hygroscopic
- DVS uptake of water (weight gain) ([5]; from 5 to 95% relative humidity): approximately 8%
- Crystallization of post-DVS sample ([5]; post-DVS): Crystallization was not observed

SMILES: CO[C@H]1/C=C/O[C@@]2(C)Oc3c(C)c(O)c4c(O)c(c5c(nc6cc(C)ccn65)c4c3C2=O)NC(=O)/C(C)=C\C=C\[C@H](C)[C@H](O)[C@@H](C)[C@@H](O)[C@@H](C)[C@H](OC(C)=O)[C@@H]1C [Form δ, reference compound]
- Final Form (XRPD) ([2]; P2O5, 3 days): ε dry

SMILES: CO[C@H]1/C=C/O[C@@]2(C)Oc3c(C)c(O)c4c(O)c(c5c(nc6cc(C)ccn65)c4c3C2=O)NC(=O)/C(C)=C\C=C\[C@H](C)[C@H](O)[C@@H](C)[C@@H](O)[C@@H](C)[C@H](OC(C)=O)[C@@H]1C [Form ζ]
- XRPD Form after drying ([1]; air dry): γ
- XRPD Form after drying ([1]; open vial in hood): γ
- XRPD Form after storage ([1]; stored in refrigerator 3 weeks): ζ
- XRPD Form after drying ([1]; vac dry): γ + η
- XRPD Form after drying ([1]; vac oven, 40° C., 1 day): remained unchanged
- XRPD Form after drying ([1]; vac oven, 45° C., 2 days): η
- XRPD Form after drying ([1]; vac oven, ambient, 1 day): Form η
- XRPD Form after drying ([1]; vac oven, ambient, 1 day, listed as ζ): η
- Solid form after vacuum drying ([1]; vacuum dried (Table 1)): η or and γ + η
- Final Form (XRPD) ([2]; 43% RH, 3 days): Form γ
- Final Form (XRPD) ([2]; 43% RH, 3 days, listed as ζ): γ
- Final Form (XRPD) ([2]; 58% RH, 3 days): Form γ-1 (ζ)
- Final Form (XRPD) ([2]; 75% RH, 3 days): Form γ-1 (ζ)
- Final Form (XRPD) ([2]; 94% RH, 3 days): Form β+γ-1 (ζ); also recorded: Form β30 γ-1 (ζ)
- Final Form (XRPD) ([2]; stability chamber, 75% RH at 40° C., 1 day): ζ + γ^e

SMILES: CO[C@H]1/C=C/O[C@@]2(C)Oc3c(C)c(O)c4c(O)c(c5c(nc6cc(C)ccn65)c4c3C2=O)NC(=O)/C(C)=C\C=C\[C@H](C)[C@H](O)[C@@H](C)[C@@H](O)[C@@H](C)[C@H](OC(C)=O)[C@@H]1C [Form α-dry]
- XRPD Form after drying ([1]; vac oven 50° C., 1 day): α dry
- XRPD Form after drying ([1]; vac oven 50° C., 1 day, vac oven 60° C.): α dry
- XRPD Form after drying ([1]; vac oven 60-65° C., 3 days, listed as α dry): α dry
- Solid form after vacuum drying ([1]; vacuum dried (Table 1 column), listed as α dry): α dry
- Post-moisture sorption/desorption XRPD form ([3]; listed as α dry): α dry
- Final Form (XRPD) ([2]; 33% RH, 2 days): α
- Final Form (XRPD) ([2]; 33% RH, 7 days): α
- Final Form (XRPD) ([2]; 43% RH, 4 days): α + β
- Final Form (XRPD) ([2]; 43% RH, 11 days): β + (α)
- Final Form (XRPD) ([2]; 58% RH, 2 days): β
- RH stability: solid form after exposure, 58% RH ([2]; 58% RH, listed as α dry): β
- Final Form (XRPD) ([2]; 75% RH, 2 days): β
- RH stability: solid form after exposure, 75% RH ([2]; 75% RH, listed as α dry): β
- Final Form (XRPD) ([2]; 94% RH, 2 days): β

SMILES: CO[C@H]1/C=C/O[C@@]2(C)Oc3c(C)c(O)c4c(O)c(c5c(nc6cc(C)ccn65)c4c3C2=O)NC(=O)/C(C)=C\C=C\[C@H](C)[C@H](O)[C@@H](C)[C@@H](O)[C@@H](C)[C@H](OC(C)=O)[C@@H]1C [crash amorphous rifaximin]
- XRPD Result after milling [6]: amorphous

SMILES: CO[C@H]1/C=C/O[C@@]2(C)Oc3c(C)c(O)c4c(O)c(c5c(nc6cc(C)ccn65)c4c3C2=O)NC(=O)/C(C)=C\C=C\[C@H](C)[C@H](O)[C@@H](C)[C@@H](O)[C@@H](C)[C@H](OC(C)=O)[C@@H]1C [Form γ, reference compound]
- XRPD Form after drying ([1]; vac oven, ambient, 1 day): remained unchanged
- wt loss from 95 to 5% RH [3]: 11.7%
- wt loss upon equilibration at 5% RH [3]: 2.4%
- Hygroscopicity [3]: hygroscopic
- wt gain from 5 to 95% RH [3]: 10.8%
